The source of these data is ChEMBL document CHEMBL1139712, “Interaction of N1-unsubstituted and N1-benzenesulfonyltryptamines at h5-HT6 receptors” (Bioorg Med Chem Lett, 2006).

A word on the Ki: it is the equilibrium dissociation constant of an inhibitor or competing ligand from its target. Low values mean tighter binding, high ones weaker binding.

In the experiment the target is 5-hydroxytryptamine receptor 6 (Homo sapiens, UniProt P50406). Nature of the experiment: Displacement of [3H]LSD from human 5HT6 receptor expressed in HEK293 cells. Format: cell-based.
Chain of 5-hydroxytryptamine receptor 6 (P50406 whole entry): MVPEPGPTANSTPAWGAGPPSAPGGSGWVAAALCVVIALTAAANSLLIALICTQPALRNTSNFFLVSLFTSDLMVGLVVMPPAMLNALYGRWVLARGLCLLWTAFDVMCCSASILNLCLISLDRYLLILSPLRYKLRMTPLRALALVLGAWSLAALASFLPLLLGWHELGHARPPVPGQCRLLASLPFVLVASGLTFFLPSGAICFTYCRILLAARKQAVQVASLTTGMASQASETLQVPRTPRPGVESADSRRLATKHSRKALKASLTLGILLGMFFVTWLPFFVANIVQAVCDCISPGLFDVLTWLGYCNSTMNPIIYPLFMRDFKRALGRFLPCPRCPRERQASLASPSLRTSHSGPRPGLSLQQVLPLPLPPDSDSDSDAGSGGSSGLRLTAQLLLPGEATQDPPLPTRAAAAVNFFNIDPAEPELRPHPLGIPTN
With `COc1ccc2[nH]cc(CCN(C)Cc3ccccc3)c2c1`, the affinity, expressed as Ki, was 106 nM.
`CN(C)CCc1cn2c3c(cccc13)-c1ccccc1S2(=O)=O` showed an inhibitory constant (Ki) of 4500 nM.
The compound `CCN(CC)CCc1c[nH]c2ccccc12` yielded a Ki of 575 nM.
`CN(C)CCc1c2n(c3ccccc13)S(=O)(=O)c1ccccc1-2` showed a Ki of 143 nM.
In the case of `COc1cccc2c1c(CCN(C)C)cn2S(=O)(=O)c1ccccc1` it was 11 nM; in that of `COc1ccc2c(CCN(C)C)cn(S(=O)(=O)c3ccccc3)c2c1`, 15 nM; in that of `CCN(CC)CCc1cn(S(=O)(=O)c2ccccc2)c2ccccc12`, 14 nM.
